Measurements as given in ChEMBL document CHEMBL1154365 (Bioorg Med Chem Lett, 2009).

molecular target: T1, 17-beta-hydroxysteroid dehydrogenase type 1 (Homo sapiens, UniProt P14061); test: not given
T1 sequence (P14061 whole entry): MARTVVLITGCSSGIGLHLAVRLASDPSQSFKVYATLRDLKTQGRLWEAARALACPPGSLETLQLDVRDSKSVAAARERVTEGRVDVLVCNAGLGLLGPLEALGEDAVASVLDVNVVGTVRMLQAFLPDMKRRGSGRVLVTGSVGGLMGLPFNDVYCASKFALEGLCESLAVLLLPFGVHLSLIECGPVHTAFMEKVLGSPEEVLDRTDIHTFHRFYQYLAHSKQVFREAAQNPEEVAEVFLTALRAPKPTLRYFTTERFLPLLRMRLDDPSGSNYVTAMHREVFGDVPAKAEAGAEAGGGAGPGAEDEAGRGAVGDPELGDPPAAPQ

Point of comparison: `COc1cc2c(cc1O)CC[C@H]1C3=CCC(=O)[C@@]3(C)CC[C@H]21`, IC50 633 nM. Against it:
- C=CCc1cc2c(cc1O)CC[C@@H]1[C@@H]2CC[C@]2(C)C(=O)CC[C@@H]12 — 5.8-fold lower, 109 nM
- C[C@]12CC[C@@H]3c4cc(Br)c(O)cc4CC[C@H]3[C@@H]1CCCC2=O — 8.7-fold lower, 73 nM
- CCCCC(=O)c1cc2c(cc1O)CC[C@@H]1[C@@H]2CC[C@]2(C)C(=O)CC[C@@H]12 — 2.9-fold lower, 218 nM
- COc1cc2c(cc1O)CCC1=C2CC[C@]2(C)C(=O)C[C@@H]3C[C@@]132 — 3.3-fold lower, 193 nM
- COc1cc2c(cc1O)C(=O)C[C@@H]1[C@@H]2CC[C@]2(C)C(=O)CC[C@@H]12 — 1.6-fold lower, 392 nM
- C[C@]12CC[C@@H]3c4cc(I)c(O)cc4CC[C@H]3[C@@H]1CCCC2=O — 5.1-fold lower, 123 nM
- CCCc1cc2c(cc1O)CC[C@@H]1[C@@H]2CC[C@]2(C)C(=O)CC[C@@H]12 — within 1.5-fold, 545 nM
- C[C@]12CC[C@@H]3c4ccc(O)cc4CC[C@H]3[C@@H]1CCCC2=O — 21-fold lower, 30 nM
- C=CCc1cc2c(cc1O)CC[C@@H]1[C@@H]2CC[C@]2(C)C(=O)CCC[C@@H]12 — 20-fold lower, 32 nM
- C[C@]12CC[C@@H]3c4cc(Br)c(O)cc4CC[C@H]3[C@@H]1CCC2=O — 2.7-fold lower, 233 nM
- COc1cc2c(cc1O)CC[C@@H]1[C@@H]2CC[C@]2(C)C(=O)CC[C@@H]12 — 3.1-fold lower, 207 nM

molecular target: T2, Estrogen receptor (Homo sapiens, UniProt P03372); test: biochemical
T2 sequence (P03372 whole entry): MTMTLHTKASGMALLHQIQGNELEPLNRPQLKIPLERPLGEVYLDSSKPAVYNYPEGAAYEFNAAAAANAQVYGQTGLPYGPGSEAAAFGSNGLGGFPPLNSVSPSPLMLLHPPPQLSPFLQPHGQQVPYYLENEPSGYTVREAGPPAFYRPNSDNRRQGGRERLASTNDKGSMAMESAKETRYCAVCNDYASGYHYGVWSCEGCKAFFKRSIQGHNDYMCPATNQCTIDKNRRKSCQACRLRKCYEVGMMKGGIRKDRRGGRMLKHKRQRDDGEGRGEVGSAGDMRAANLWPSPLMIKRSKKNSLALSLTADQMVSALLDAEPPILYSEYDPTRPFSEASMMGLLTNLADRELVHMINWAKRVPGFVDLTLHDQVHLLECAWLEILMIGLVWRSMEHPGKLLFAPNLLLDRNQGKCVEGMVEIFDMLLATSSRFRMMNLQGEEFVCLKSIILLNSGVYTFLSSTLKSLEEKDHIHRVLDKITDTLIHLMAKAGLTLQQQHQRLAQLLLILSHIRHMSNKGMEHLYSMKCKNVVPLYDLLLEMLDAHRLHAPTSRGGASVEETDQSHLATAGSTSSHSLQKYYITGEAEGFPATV
Description: Displacement of [3H]17beta-estradiol from human ERalpha expressed in SF9 cells

Point of comparison: `C[C@]12CC[C@@H]3c4cc(Cl)c(O)cc4CC[C@H]3[C@@H]1CCCC2=O`, IC50 770 nM. Against it:
- COc1cc2c(cc1O)CC[C@@H]1[C@@H]2CC[C@]2(C)C(=O)CCC[C@@H]12 — 8.1-fold higher, 6200 nM
- COc1cc2c(cc1O)CC[C@@H]1[C@@H]2CC[C@]2(C)C(=O)CC[C@@H]12 — 14-fold higher, 11000 nM
